Data as given in PubChem BioAssay AID248 (DTP/NCI, 2004).
“And” between values parts separate entries of the source, which are not always exact repeats. Identical values can stand only once. Inconclusive results and toxic doses are left out. Rule as the data show it: active = T/C of 150% or more; inactive = T/C below 125%.

System: L1210 leukemia ip in BDF1 mice, survival T/C
Assay: NCI In Vivo Anticancer Drug Screen. Data for tumor model L1210 Leukemia (intraperitoneal) in B6D2F1 (BDF1) mice
Conditions: endpoint: mean survival time, higher = longer survival
Procedure, shortened: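 Value reflects the ratio of survival in compound-treated mice to survival in vehicle-treated controls, with both groups carrying the same transplanted tumor.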

[1] = dose: 25.0 mg/kg/injection, schedule: Q01DX009 (ip), vehicle: saline
[2] = dose: 50.0 mg/kg/injection, schedule: Q01DX009 (ip), vehicle: saline
[3] = dose: 100.0 mg/kg/injection, schedule: Q01DX009 (ip), vehicle: saline
[4] = dose: 200.0 mg/kg/injection, schedule: Q01DX009 (ip), vehicle: saline
[5] = dose: 400.0 mg/kg/injection, schedule: Q01DX009 (ip), vehicle: saline
[6] = dose: 100.0 mg/kg/injection, schedule: Q01DX001 (ip), vehicle: saline
[7] = dose: 200.0 mg/kg/injection, schedule: Q01DX001 (ip), vehicle: saline
[8] = dose: 400.0 mg/kg/injection, schedule: Q01DX001 (ip), vehicle: saline

Measured: T/C

NC(Cc1cc(I)c(O)c(I)c1)C(=O)O (stereo not given)
inactive: dose: 12.5 mg/kg/injection, schedule: Q01DX009 (ip), vehicle: carboxymethylcellulose (CMC) 101 % of control | dose: 25.0 mg/kg/injection, schedule: Q01DX009 (ip), vehicle: carboxymethylcellulose (CMC) 99 % of control | [1] 92 % of control | dose: 25.0 mg/kg/injection, schedule: Q04DX003 (ip), vehicle: carboxymethylcellulose (CMC) 101 % of control | dose: 50.0 mg/kg/injection, schedule: Q01DX009 (ip), vehicle: carboxymethylcellulose (CMC) 90 % of control | [2] 112 % of control | dose: 50.0 mg/kg/injection, schedule: Q04DX003 (ip), vehicle: carboxymethylcellulose (CMC) 100 % of control | dose: 100.0 mg/kg/injection, schedule: Q01DX009 (ip), vehicle: carboxymethylcellulose (CMC) 99 % of control | [3] 108 % of control | dose: 100.0 mg/kg/injection, schedule: Q04DX003 (ip), vehicle: carboxymethylcellulose (CMC) 96 % of control | dose: 200.0 mg/kg/injection, schedule: Q01DX009 (ip), vehicle: carboxymethylcellulose (CMC) 91 % of control | [4] 108 % of control | dose: 200.0 mg/kg/injection, schedule: Q04DX003 (ip), vehicle: carboxymethylcellulose (CMC) 92 % of control | [5] 95 % of control | dose: 400.0 mg/kg/injection, schedule: Q04DX003 (ip), vehicle: carboxymethylcellulose (CMC) 100 % of control

O=C(Oc1ccccc1)c1cc(Br)ccc1O
inactive: dose: 100.0 mg/kg/injection, schedule: Q01DX001 (ip), vehicle: carboxymethylcellulose (CMC) 97 % of control | dose: 200.0 mg/kg/injection, schedule: Q01DX001 (ip), vehicle: carboxymethylcellulose (CMC) 95 % of control | dose: 400.0 mg/kg/injection, schedule: Q01DX001 (ip), vehicle: carboxymethylcellulose (CMC) 100 % of control

CC(C)N(C(C)C)C(C)CCNc1c2ccccc2nc2cc(Cl)ccc12 (stereo not given)
inactive: dose: 1.88 mg/kg/injection, schedule: Q01DX Z (ip), vehicle: methylcellulose (MC) 113 % of control | dose: 3.0 mg/kg/injection, schedule: Q01DX Z (ip), vehicle: methylcellulose (MC) 117 % of control | dose: 3.75 mg/kg/injection, schedule: Q01DX Z (ip), vehicle: methylcellulose (MC) 115 % of control | dose: 5.0 mg/kg/injection, schedule: Q01DX Z (ip), vehicle: methylcellulose (MC) 116 % of control | dose: 6.0 mg/kg/injection, schedule: Q04DX003 (ip), vehicle: saline 98 % of control | dose: 7.5 mg/kg/injection, schedule: Q01DX Z (ip), vehicle: methylcellulose (MC) 110 % of control | dose: 12.0 mg/kg/injection, schedule: Q04DX003 (ip), vehicle: saline 102 % of control | dose: 15.0 mg/kg/injection, schedule: Q01DX Z (ip), vehicle: methylcellulose (MC) 109 % of control | dose: 24.0 mg/kg/injection, schedule: Q04DX003 (ip), vehicle: saline 105 % of control

COC(=O)C1C2C(C)=CC(O)(CC2(C)C)C1C(=O)OC (stereo not given)
inactive: [6] 95 % of control | [7] 95 % of control | [8] 101 % of control

CC(=O)N1CC(=O)NC1=S
inactive: dose: 100.0 mg/kg/injection, schedule: Q01DX001 (ip), vehicle: Klucel (hydroxypropylcellulose) (HPC) 115 % of control | dose: 200.0 mg/kg/injection, schedule: Q01DX001 (ip), vehicle: Klucel (hydroxypropylcellulose) (HPC) 107 % of control | dose: 400.0 mg/kg/injection, schedule: Q01DX001 (ip), vehicle: Klucel (hydroxypropylcellulose) (HPC) 95 % of control

COc1cc(/C=C2\CCC/C(=C\c3ccc(O)c(OC)c3)C2=O)ccc1O
inactive: dose: 100.0 mg/kg/injection, schedule: Q04DX003 (ip), vehicle: Klucel (hydroxypropylcellulose) (HPC) 93 % of control | dose: 200.0 mg/kg/injection, schedule: Q04DX003 (ip), vehicle: Klucel (hydroxypropylcellulose) (HPC) 87 % of control

CCN(CC)CCOc1ccccc1OC
inactive: dose: 12.0 mg/kg/injection, schedule: Q01DX009 (ip), vehicle: saline 107 % of control | [1] 101 % of control | [2] 101 % of control | [6] 93 % of control | [7] 95 % of control

CC1CN1P(=O)(N1CCCCC1)N1CC1C (stereo not given)
inactive: dose: 11.0 mg/kg/injection, schedule: Q01DX Z (ip), vehicle: carboxymethylcellulose (CMC) 97 % of control | dose: 11.0 mg/kg/injection, schedule: Q01DX Z (ip), vehicle: saline 109 % of control | dose: 13.0 mg/kg/injection, schedule: Q01DX Z (ip), vehicle: carboxymethylcellulose (CMC) 102 % of control | dose: 17.0 mg/kg/injection, schedule: Q01DX Z (ip), vehicle: carboxymethylcellulose (CMC) 119 % of control | dose: 17.0 mg/kg/injection, schedule: Q01DX Z (ip), vehicle: saline 116 % of control | dose: 20.0 mg/kg/injection, schedule: Q01DX Z (ip), vehicle: carboxymethylcellulose (CMC) 102 % of control | dose: 25.0 mg/kg/injection, schedule: Q01DX Z (ip), vehicle: carboxymethylcellulose (CMC) 104 % of control and 116 % of control | dose: 25.0 mg/kg/injection, schedule: Q01DX Z (ip), vehicle: saline 104 % of control | dose: 30.0 mg/kg/injection, schedule: Q01DX Z (ip), vehicle: carboxymethylcellulose (CMC) 105 % of control | dose: 38.0 mg/kg/injection, schedule: Q01DX Z (ip), vehicle: carboxymethylcellulose (CMC) 115 % of control and 116 % of control | dose: 45.0 mg/kg/injection, schedule: Q01DX Z (ip), vehicle: carboxymethylcellulose (CMC) 100 % of control and 115 % of control | dose: 57.0 mg/kg/injection, schedule: Q01DX Z (ip), vehicle: saline 118 % of control | dose: 85.0 mg/kg/injection, schedule: Q01DX Z (ip), vehicle: carboxymethylcellulose (CMC) 109 % of control | dose: 86.0 mg/kg/injection, schedule: Q01DX Z (ip), vehicle: saline 102 % of control and 113 % of control

COCCN1CCC(CO)C1 (stereo not given)
inactive: [6] 93 % of control | [7] 98 % of control | [8] 93 % of control

COC1=C(CNc2ncnc3nc[nH]c23)CC=CC1
inactive: [3] 95 % of control | [4] 97 % of control | [5] 100 % of control

COc1cc(C)c([N+](=O)[O-])cc1OC
inactive: [6] 106 % of control | [7] 97 % of control | [8] 101 % of control

COc1ccc(/C=N/NC(=O)C[n+]2ccccc2)c(OC)c1
inactive: dose: 25.0 mg/kg/injection, schedule: Q01DX009 (ip), vehicle: saline with Tween-80 110 % of control | dose: 50.0 mg/kg/injection, schedule: Q01DX009 (ip), vehicle: saline with Tween-80 101 % of control | dose: 100.0 mg/kg/injection, schedule: Q01DX009 (ip), vehicle: saline with Tween-80 103 % of control | dose: 100.0 mg/kg/injection, schedule: Q04DX003 (ip), vehicle: saline with Tween-80 94 % of control

CNC(=S)C(=S)NC
inactive: dose: 12.5 mg/kg/injection, schedule: Q04DX003 (ip), vehicle: saline with Tween-80 94 % of control | dose: 25.0 mg/kg/injection, schedule: Q04DX003 (ip), vehicle: saline with Tween-80 95 % of control

Cc1cc(Cl)ccc1NC(=O)c1ccccc1Cl
inactive: dose: 100.0 mg/kg/injection, schedule: Q01DX009 (ip), vehicle: Klucel (hydroxypropylcellulose) (HPC) 101 % of control | dose: 100.0 mg/kg/injection, schedule: Q04DX003 (ip), vehicle: saline 109 % of control | dose: 200.0 mg/kg/injection, schedule: Q01DX009 (ip), vehicle: Klucel (hydroxypropylcellulose) (HPC) 90 % of control | dose: 200.0 mg/kg/injection, schedule: Q04DX003 (ip), vehicle: saline 106 % of control | dose: 400.0 mg/kg/injection, schedule: Q01DX009 (ip), vehicle: Klucel (hydroxypropylcellulose) (HPC) 89 % of control | dose: 400.0 mg/kg/injection, schedule: Q04DX003 (ip), vehicle: saline 106 % of control
